Measured values reported in patent US20230312643A1, “PEPTIDE DERIVATIVE WITH COLLAGENASE INHIBITORY ACTIVITY, AND USE THEREOF” (SUNMARINE BIOTECH, priority 2020, published 2023).

How the values were obtained:
elastase = molecular target: T1, elastase (Sus scrofa, UniProt P00772); assay: Elastase inhibitory activity (EnzChek Elastase Assay Kit, DQ elastin); assay type: biochemical; conditions: for inhibition at 20 µg/mL: 0.02 mg/ml; for inhibition at 40 µg/mL: 0.04 mg/ml; for inhibition at 60 µg/mL: 0.06 mg/ml
T1 construct: purchased Invitrogen
T1 sequence (P00772 27-266): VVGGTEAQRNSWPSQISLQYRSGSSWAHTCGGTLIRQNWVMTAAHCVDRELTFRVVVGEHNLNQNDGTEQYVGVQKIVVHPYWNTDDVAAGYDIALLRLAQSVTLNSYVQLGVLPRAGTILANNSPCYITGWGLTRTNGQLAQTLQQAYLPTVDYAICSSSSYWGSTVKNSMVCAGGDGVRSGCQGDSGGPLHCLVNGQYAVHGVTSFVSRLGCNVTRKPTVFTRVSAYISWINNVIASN
Description: Elastase inhibitory activity was performed by purchasing EnzChek® Elastase Assay Kit (600 Assays) reagent from Invitrogen. First, DQ elastin stock solution (1 mg/ml) was prepared by adding 1.0 ml of DDW to 1 mg DQ elastin vial. The 18 ml of DDW was added to 2 ml of 10× reaction buffer, so as to dilute reaction buffer. Then, an elastase enzyme reagent was prepared, and diluted with reaction buffer to a final concentration of 0.2 U/ml as working solution. Three samples of 50 ? each were prepared in a 96-well plate. The 50 ? of reaction buffer was added to 50 ? of DQ elastin and sample blank, and 50 ? of working solution was added to a sample, which were then left in a light-blocked state at room temperature for about one hour, and then fluorescence intensity was measured at excitation wavelength 505 nm and emission wavelength 515 nm using ELISA plate reader (VICTOR X3™, PerkinElmer, US).
Copper peptide (Comparative Example 12) and EGCg (Comparative Example 13), which is widely used as a raw material for functional cosmetics, were prepared at the same concentration and used as a positive control.
EGCg (epigallocatechin gallate) is a kind of polyphenol, which is an extract of green tea leaves, and is used as a cosmetic raw material for anti-oxidation, inflammation reduction, and wrinkle alleviation, and Copper peptide is used as a raw material for promoting wound healing, strengthening skin elasticity, and increasing subcutaneous fat layer to suppress skin aging due to excellent skin regeneration ability.

gelatinase = assay: Gelatinase inhibitory activity (EnzChek Gelatinase/Collagenase Assay Kit, DQ gelatin); assay type: biochemical
Description: Gelatinase is an enzyme which plays a major role in promoting skin aging by more finely degrading collagen fragments digested by MMP-1 with MMP-2, and wrinkle reduction activity was determined by measuring the inhibitory activity of the enzyme.
(§1) Gelatinase inhibitory activity was performed by purchasing EnzChek® Gelatinase/Collagenase Assay Kit (250-2000 Assays) reagent from Invitrogen. First, DQ gelatin stock solution (1 mg/ml) was prepared by adding 1.0 ml of DDW to 1 mg DQ gelatin vial. The 18 ml of DDW was added to 2 ml of 10× reaction buffer, so as to dilute reaction buffer. Then, a gelatinase enzyme reagent was prepared, and diluted with reaction buffer to a final concentration of 0.2 U/ml as working solution. Three samples of 50 ? each were prepared in a 96-well plate. The 30 ? of reaction buffer was added to 20 ? of DQ gelatin and sample blank, and 30 ? of working solution was added to a sample, which were then left in a light-blocked state at room temperature for about one to two hours, and then fluorescence intensity was measured at excitation wavelength 485 nm and 535 nm using ELISA plate reader (VICTOR X3™, PerkinElmer, US).

MMP1 protein (pdb1cgl) [1] = molecular target: T2, MMP1 protein (pdb1cgl) (Homo sapiens, UniProt P03956); assay: Molecular docking (SYBYL-X 2.1.1, Surflex-Dock 2.7) of binding affinity to collagenase; conditions: from Surflex-Dock total score
T2 sequence (P03956 101-269 limits assumed): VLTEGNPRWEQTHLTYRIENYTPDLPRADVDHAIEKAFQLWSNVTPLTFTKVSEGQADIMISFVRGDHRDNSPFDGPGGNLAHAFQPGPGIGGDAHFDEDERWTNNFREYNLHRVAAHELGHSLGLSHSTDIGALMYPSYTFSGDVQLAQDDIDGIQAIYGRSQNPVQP
Description: Molecular modeling was conducted through a computer simulation program.
Target structure: MMP1 protein (pdb1cgl)
Software: SYBYL-X 2.1.1, Surflex-Dock2.7
Through a computer simulation program, a study was conducted on how to promote collagenase enzyme inhibitory activity and percutaneous absorption during peptide modification.
Total score is a value indicating the degree of binding affinity of a docked structure including a crash and a polar interaction in the unit of pKd, and the larger the value, the higher the binding affinity. And, the similarity is a value comparing the similarity with the structure already bonded to the 1cgl, and means that the closer to 1, the more similar. The result of such docking means that the addition of an appropriate modification residue through a docking simulation of computer chemistry may increase the binding affinity and similarity.
However, when compared with the overall consensus score, a binding affinity similar to or higher than that of pdb1cgl_ligand may be expected, particularly in the modified GPN and PGN, too.

[2] = HaCaT cytotoxicity test (MTS cell viability); assay type: cell-based; conditions: human, HaCaT cells (skin epidermal cells); for viability at 24 h, 1 µg/mL: 1 μg/ml; for viability at 24 h, 10 µg/mL: 10 μg/ml; for viability at 24 h, 50 µg/mL: 50 μg/ml; for viability at 24 h, 100 µg/mL: 100 μg/ml
Description: HaCaT cells, skin epidermal cells (derived from human), were used. The medium was DMEM low (SH30021.01, HyClone™, Logan, UT, USA) medium containing 10% fetal bovine serum (FBS, Lonza, Valais, Switzerland) medium. The cell lines were cultured in an incubator adjusted to 95% humidity, 5% CO2 and 37° C., and at this time, a medium antibiotic (Penicillin streptomycin, Gibco, Calif., USA) was used to suppress contamination or proliferation of microorganisms. When the cells covered the dish about 80%, the cells were washed with phosphated-buffered saline-EDTA (PBS-EDTA), and then the cells attached to the bottom of the dish were detached by treating with 1 ml of 0.05% trypsin EDTA, and subjected to subculture. The medium was exchanged every 48 hours to culture the cells.
Cell viability was measured using MTS (CellTiter 96® AQueous One Solution Cell Proliferation Assay, Promega, USA) reagent. The cells were divided at a concentration of 1×10^4 cells/well in a 96-well plate and then stabilized for 24 hours in an incubator controlled to 95% humidity, 5% CO2 and 37° C. After that, the samples were treated for each concentration (table 1) and cultured for 24 hours in an incubator controlled to 95% humidity, 5% CO2 and 37° C. After the medium was removed, 9 ml of medium (DMEM low, free FBS) was added to 1 ml of the reagent and diluted, and then 100 ul of the diluted solution was treated per well. After the reaction at 37° C. for 60 minutes, absorbance was measured at 490 nm with microplate reader (Molecular Devices, VersaMax ELISA Microplate Reader, USA). Cell viability was represented by absorbance of a sample-treated group compared to a control group not treated with the sample.

[3] = HS68 cytotoxicity test (MTS cell viability); assay type: cell-based; conditions: human, HS68 cells (skin fibroblasts); for viability at 24 h, 1 µg/mL: HS68, 1 μg/ml; for viability at 24 h, 10 µg/mL: HS68, 10 μg/ml; for viability at 24 h, 100 µg/mL: HS68, 100 μg/ml; for viability at 24 h, 50 µg/mL: HS68, 50 μg/ml
Description: (§2) Skin fibroblast HS68 cells were used. The medium was DMEM high glucose (SH30243.01, HyClone™, Logan, UT, USA) medium containing 10% fetal bovine serum (FBS, Lonza, Valais, Switzerland) medium. The cell lines were cultured in an incubator adjusted to 95% humidity, 5% CO2 and 37° C., and at this time, a medium antibiotic (Penicillin streptomycin, Gibco, Calif., USA) was used to suppress contamination or proliferation of microorganisms.
(§3) Cell viability was measured using MTS (CellTiter 96® AQueous One Solution Cell Proliferation Assay, Promega, USA) reagent. The cells were divided at a concentration of 1×10^4 cells/well in a 96-well plate and then stabilized for 24 hours in an incubator controlled to 95% humidity, 5% CO2 and 37° C. After that, the samples were treated for each concentration and cultured for 24 hours in an incubator controlled to 95% j humidity, 5% CO2 and 37° C. After the medium was removed, 9 ml of medium (DMEM high, free FBS) was added to 1 ml of the reagent and diluted, and then 100 ul of the diluted solution was treated per well. After the reaction at 37° C. for 60 minutes, absorbance was measured at 490 nm with microplate reader (Molecular Devices, VersaMax ELISA Microplate Reader, USA). Cell viability was represented by absorbance of a sample-treated group compared to a control group not treated with the sample.

HS68 cells = assay: HS68 cytotoxicity test (MTS cell viability); assay type: cell-based; conditions: HS68, 50 μg/ml, 24 hours
Description: as §2, §3

MMP1 protein (pdb1cgl) [4] = molecular target: T2, MMP1 protein (pdb1cgl); conditions: ligand binding to pdb; cited from earlier work
collagenase = assay: Collagenase inhibitory activity (EnzChek Gelatinase/Collagenase Assay Kit, DQ collagen); assay type: biochemical
Description: as §1, with “Collagenase inhibitory activity” for “Gelatinase inhibitory activity”, “First, DQ collagen stock solution” for “First, DQ gelatin stock solution”, “mg DQ collagen vial. The” for “mg DQ gelatin vial. The”, “Then, a collagenase enzyme reagent” for “Then, a gelatinase enzyme reagent”, “of DQ collagen and sample” for “of DQ gelatin and sample”, “nm and emission wavelength 535 nm” for “nm and 535 nm”
As a positive control, copper peptide (Comparative Example 12), which is a representative peptide widely used as a raw material for functional cosmetics, was prepared at the same concentration and used. Copper peptide has excellent skin regeneration ability and thus is used as a raw material to suppress skin aging by promoting wound healing, strengthening skin elasticity, and increasing subcutaneous fat layers.

O=C(O[C@@H]1Cc2c(O)cc(O)cc2O[C@@H]1c1cc(O)c(O)c(O)c1)c1cc(O)c(O)c(O)c1 [EGCg, epigallocatechin gallate, reference compound]
elastase inhibitory activity (elastase; 0.1 mg/ml): 66.1 ± 4.4% | elastase inhibitory activity (elastase; 1 mg/ml): 66.1% | Gelatinase inhibitory activity (gelatinase; 0.5 mg/ml): 74.7%

NCC(=O)N1CCC[C@H]1C(=O)N[C@@H](CC(N)=O)C(=O)O [GPN, Gly-Pro-Asn, reference compound]
binding affinity compared to 1cgl ligand (MMP1 protein (pdb1cgl) [1]): about 51.8%

CCCC(=O)C(CC(N)=O)NC(=O)C1CCCN1C(=O)CNC (centres unmarked) [Me-GPN-Propyl]
binding affinity compared to 1cgl ligand (MMP1 protein (pdb1cgl) [1]): 74.7% | increase of binding affinity compared to before the modification (MMP1 protein (pdb1cgl) [1]): 21.9%

CCCC(=O)C(CC(N)=O)NC(=O)CNC(=O)C1CCCN1C (centres unmarked) [Me-PGN-Propyl]
binding affinity compared to 1cgl ligand (MMP1 protein (pdb1cgl) [1]): 90.1% | increase of binding affinity compared to before the modification (MMP1 protein (pdb1cgl) [1]): 28.6%

CN1CCC[C@H]1C(=O)NCC(=O)N[C@@H](CC(N)=O)C(=O)O [Me-PGN]
inhibition at 20 µg/mL (elastase): 5.2 ± 1.7% | inhibition at 40 µg/mL (elastase): 6.9 ± 1.8% | inhibition at 60 µg/mL (elastase): 9.9 ± 1.5% | inhibition at 100 µg/mL (elastase; 0.1 mg/ml): 11.2 ± 1.1% | inhibition at 1000 µg/mL (elastase; 1 mg/ml): 11.2% | viability at 24 h, 1 µg/mL [2]: 125 ± 6.1% | viability at 24 h, 10 µg/mL [2]: 127 ± 6.5% | viability at 24 h, 50 µg/mL [2]: 122 ± 3.7% | viability at 24 h, 100 µg/mL [2]: 126 ± 14.8% | viability at 24 h, 1 µg/mL [3]: 103 ± 3.9% | viability at 24 h, 10 µg/mL [3]: 104 ± 4.5% | viability at 24 h, 100 µg/mL [3]: 104 ± 5.6% | Cell viability (HS68 cells): 103 ± 3.4%

COC(=O)NCC[C@@H](N[C@@H](CC(C)C)C(=O)N[C@@H](Cc1ccccc1)C(=O)NCCN1CCOCC1)C(=O)O [PDB 1CGL]
Ki (MMP1 protein (pdb1cgl) [4]): 0.135 µM

CCCOC(=O)[C@H](CC(N)=O)NC(=O)CNC(=O)[C@@H]1CCCN1 [PGN-OPr, PGN(Pro-Gly-Asn)-OPr]
Collagenase inhibitory activity (collagenase; 0.05 mg/ml): 5.7 ± 3.1% | Collagenase inhibitory activity (collagenase; 0.1 mg/ml): 14.3 ± 5.2% | Collagenase inhibitory activity (collagenase; 0.5 mg/ml): 67.1 ± 0.8% | Collagenase inhibitory activity (collagenase; 1 mg/ml): 98.7% | collagenase inhibitory activity IC50 (collagenase; FIGS. 5 and 6): 508 µg/mL | inhibition at 20 µg/mL (elastase): 17.3 ± 1.1% | inhibition at 40 µg/mL (elastase): 27.5 ± 2.5% | inhibition at 60 µg/mL (elastase): 34.2 ± 0.5% | inhibition at 100 µg/mL (elastase; 0.1 mg/ml): 77.6 ± 2.8% | inhibition at 1000 µg/mL (elastase; 1 mg/ml): 77.6% | IC50 (elastase; FIGS. 8 and 9): 216 µM | Gelatinase inhibitory activity (gelatinase; 0.2 mg/ml): 16.9 ± 2.7% | Gelatinase inhibitory activity (gelatinase; 0.3 mg/ml): 54.2 ± 6.3% | Gelatinase inhibitory activity (gelatinase; 0.4 mg/ml): 96.4 ± 1.8% | Gelatinase inhibitory activity (gelatinase; 0.5 mg/ml): 98.9% | gelatinase inhibitory activity, times higher than that of Copper peptide (gelatinase; 0.5 mg/ml): ~15 times | gelatinase inhibitory activity, times higher than that of EGCg (gelatinase; 0.5 mg/ml): about 1.3 times | viability at 24 h, 1 µg/mL [2]: 117 ± 9.6% | viability at 24 h, 10 µg/mL [2]: 126 ± 14.1% | viability at 24 h, 50 µg/mL [2]: 130 ± 13.3% | viability at 24 h, 100 µg/mL [2]: 128 ± 5.3% | viability at 24 h, 1 µg/mL [3]: 107 ± 2.4% | viability at 24 h, 10 µg/mL [3]: 107 ± 8.9% | viability at 24 h, 50 µg/mL [3]: 115 ± 6.9% | viability at 24 h, 100 µg/mL [3]: 116 ± 3.6%

CCCCCCCCCCCCCCCC(=O)N1CCC[C@H]1C(=O)NCC(=O)N[C@@H](CC(N)=O)C(=O)O [Pal-PGN]
inhibition at 20 µg/mL (elastase): 0.3 ± 0.9% | inhibition at 40 µg/mL (elastase): 1.2 ± 2.8% | inhibition at 60 µg/mL (elastase): 1.5 ± 2% | inhibition at 100 µg/mL (elastase; 0.1 mg/ml): 5.2 ± 2.9% | viability at 24 h, 1 µg/mL [2]: 115 ± 10% | viability at 24 h, 10 µg/mL [2]: 112 ± 3.7% | viability at 24 h, 50 µg/mL [2]: 113 ± 7.7% | viability at 24 h, 100 µg/mL [2]: 108 ± 6.5% | viability at 24 h, 1 µg/mL [3]: 106 ± 2.9% | viability at 24 h, 10 µg/mL [3]: 111 ± 2.8% | viability at 24 h, 50 µg/mL [3]: 105 ± 3.3% | viability at 24 h, 100 µg/mL [3]: 116 ± 3.3%
